± gives the expanded uncertainty stated by the source.
Conditions: Liquid, Gas chromatography

Row | Compound | vapor or sublimation pressure (298.15 K) | vapor or sublimation pressure (310 K) | vapor or sublimation pressure (320 K) | vapor or sublimation pressure (330 K) | vapor or sublimation pressure (340 K) | vapor or sublimation pressure (350 K) | vapor or sublimation pressure (360 K) | vapor or sublimation pressure (370 K) | vapor or sublimation pressure (380 K) | vapor or sublimation pressure (390 K) | vapor or sublimation pressure (400 K) | vapor or sublimation pressure (410 K) | vapor or sublimation pressure (420 K) | vapor or sublimation pressure (430 K) | vapor or sublimation pressure (440 K) | vapor or sublimation pressure (450 K) | vapor or sublimation pressure (460 K) | vapor or sublimation pressure (470 K) | vapor or sublimation pressure (480 K) | vapor or sublimation pressure (490 K) | also measured
1 | CC(C)=CCC[C@@H](C)c1ccc(C)cc1 [(-)-α-curcumene] | 0.00097 ± 0.0001 kPa | 0.003 ± 0.0003 kPa | 0.007 ± 0.0007 kPa | 0.015 ± 0.002 kPa | 0.032 ± 0.003 kPa | 0.063 ± 0.006 kPa | 0.12 ± 0.012 kPa | 0.21 ± 0.021 kPa | 0.37 ± 0.037 kPa | 0.62 ± 0.062 kPa | 0.99 ± 0.1 kPa | 1.6 ± 0.16 kPa | 2.4 ± 0.24 kPa | 3.5 ± 0.35 kPa | 5.1 ± 0.51 kPa | 7.3 ± 0.73 kPa | 10 ± 1 kPa | 14 ± 1.4 kPa | 19 ± 1.9 kPa | 25 ± 2.5 kPa | vapor or sublimation pressure (500 K): 33 ± 3.3 kPa; vapor or sublimation pressure (510 K): 42 ± 4.2 kPa; vapor or sublimation pressure (520 K): 54 ± 5.4 kPa; vapor or sublimation pressure (530 K): 68 ± 6.8 kPa; vapor or sublimation pressure (540 K): 85 ± 8.5 kPa; vapor or sublimation pressure (548.3 K): 101.3 ± 10 kPa
2 | CC(C)=CCC[C@H](C)[C@@H]1C=CC(C)=CC1 [zingiberene] | 0.00081 ± 8e-05 kPa | 0.0025 ± 0.0003 kPa | 0.006 ± 0.0006 kPa | 0.013 ± 0.001 kPa | 0.028 ± 0.003 kPa | 0.056 ± 0.006 kPa | 0.11 ± 0.011 kPa | 0.19 ± 0.019 kPa | 0.33 ± 0.033 kPa | 0.56 ± 0.056 kPa | 0.91 ± 0.091 kPa | 1.4 ± 0.14 kPa | 2.2 ± 0.22 kPa | 3.3 ± 0.33 kPa | 4.8 ± 0.48 kPa | 6.8 ± 0.68 kPa | 9.6 ± 0.96 kPa | 13 ± 1.3 kPa | 18 ± 1.8 kPa | 24 ± 2.4 kPa | vapor or sublimation pressure (500 K): 31 ± 3.1 kPa; vapor or sublimation pressure (510 K): 41 ± 4.1 kPa; vapor or sublimation pressure (520 K): 52 ± 5.2 kPa; vapor or sublimation pressure (530 K): 66 ± 6.6 kPa; vapor or sublimation pressure (540 K): 83 ± 8.3 kPa; vapor or sublimation pressure (549.5 K): 101.3 ± 10 kPa
3 | C=C1C=C[C@@H]([C@@H](C)CCC=C(C)C)CC1 [β-sesquiphellandrene] | 0.00063 ± 6e-05 kPa | 0.002 ± 0.0002 kPa | 0.0048 ± 0.0005 kPa | 0.011 ± 0.001 kPa | 0.023 ± 0.002 kPa | 0.046 ± 0.005 kPa | 0.087 ± 0.009 kPa | 0.16 ± 0.016 kPa | 0.28 ± 0.028 kPa | 0.47 ± 0.047 kPa | 0.76 ± 0.076 kPa | 1.2 ± 0.12 kPa | 1.8 ± 0.18 kPa | 2.8 ± 0.28 kPa | 4 ± 0.4 kPa | 5.8 ± 0.58 kPa | 8.2 ± 0.82 kPa | 11 ± 1.1 kPa | 15 ± 1.5 kPa | 20 ± 2 kPa | vapor or sublimation pressure (500 K): 27 ± 2.7 kPa; vapor or sublimation pressure (510 K): 35 ± 3.5 kPa; vapor or sublimation pressure (520 K): 45 ± 4.5 kPa; vapor or sublimation pressure (530 K): 57 ± 5.7 kPa; vapor or sublimation pressure (540 K): 71 ± 7.1 kPa; vapor or sublimation pressure (556.5 K): 101.3 ± 10 kPa

Source: the NIST ThermoML archive (doi:10.1016/j.jct.2019.06.011)
